Data: patent publication US20180320177A1, “COMPOSITIONS AND METHODS FOR THE TREATMENT OF LIVER FIBROSIS” (UNIVERSITY OF CONNECTICUT, priority 2015, published 2018)

What was measured:
[1] = tested on: pAKT and pERK1/2 activation; test: pAKT and pERK1/2 activation and HMGB2 protein in primary stellate cells; format: cell-based, mouse; details: stellate cells (FIG. 6E)
Description: (§1) Western Blotting: Total protein lysates were prepared from livers and cells in lysis buffer containing 50 mM Tris, pH 8.0, 1% Nonidet™ P-40, 150 mM NaCl, 0.5% sodium deoxycholate, 0.1% SDS with protease inhibitors (Thermo Fisher Scientific) and subjected to immunoblotting. Nuclear and cytoplasmic subcellular fractions were prepared using NE-PER nuclear and cytoplasmic extraction reagents (Pierce) according to the manufacturer's instructions. The blot was incubated with a primary antibody, followed by a secondary antibody conjugated to horseradish peroxidase. ECL kit (Pierce) was used to detect the reactivity. The following antibodies were obtained from Cell Signaling Technology: HMGB2, HMGB1, AKT, p-AKT, mTOR, p-mTOR, ERK1/2, pERK1/2, Raptor, Rictor, p53, p21, p-Bad, Smad4, p-Smad2/3, Lamin A/C, a-SMA, MMP2, MMP9, TIMP1, RhoA, Rho-GTP, Cdc42, Rac1/2/3. Anti-HA antibody and anti-beta actin antibody were purchased from Sigma and Santa Cruz Biotechnology, respectively.
Primary Mouse Hepatic Stellate Cells (HSCs) isolation and in vitro activation: Primary mouse HSCs were isolated from 8 to 12 weeks old wild type or Hmgb2^−/− mice, as described in the art with modifications. Briefly, mice were anesthetized with ketamine/xylazine mixture. The liver was perfused with Hank's balanced salt solution (HBSS) supplemented with 0.5 mM EGTA through the cannulated portal vein, followed by perfusion with HBSS supplemented with 0.5 mg/ml pronase (Sigma) and HBSS with 0.14 mg/ml collagenase (Sigma). The liver was dissected out from the mouse and dissociated cells were dispersed gently in HBSS. Primary HSC was isolated by three-layer discontinuous density gradient centrifugation with 25% and 50% percoll (Sigma) and plated on non-coated culture dishes in DMEM supplemented with 10% FBS, 100 IU/ml penicillin, and 100 μg/ml streptomycin. For culture-activated HSC studies, the medium of primary HSCs was replaced every day up to 7 days. For PDGF treatment, primary HSC cells were serum starved for 24 hr and then treated with PDFG for 3 or 5 days. […]

[2] = tested on: Smad signaling; test: Smad signaling in LX2 cells (Western blot); format: cell-based, human; details: LX2 cells (FIG. 5C)
Description: as §1
Cell Lines The LX-2 human stellate cell line was maintained in Dulbecco's Modified Eagle's Medium (DMEM) supplemented with 2% fetal bovine serum (FBS), 100 IU/ml penicillin, and 100 μg/ml streptomycin. Human hepatocellular carcinoma (HCC) MHCC97H cells were maintained in DMEM supplemented with 10% FBS, 100 IU/ml penicillin, and 100 μg/ml streptomycin, 1 mM HEPES, 1 mM sodium pyruvate, 2 mM L-glutamine. […]

[3] = tested on: HMGB1 and HMGB2; details: neuroinflammation model; cited from earlier work

Compound: CC1(C)Oc2cc(O)ccc2C2C1=CCn1c(=O)n(-c3ccccc3)c(=O)n12 (centres unmarked) [ICM, inflachromene]
- HMGB2 protein [1]: reduces
- pAKR activation [1]: reduces
- pERk1/2 activation [1]: reduces
- Smad signaling [2]: decreases Smad signaling
- inhibitor profile HMGB1 / HMGB2 [3]: dual inhibitor of both HMGB1 and HMGB2
